We go through 24 molecules from patent US20250270209A1 (INTERLINE THERAPEUTICS, INC., priority 2022, published 2025).

The structures appear in SMILES notation.

Test [1] concerns the target T1, wild type LRRK2 overexpressed in recombinant HEK-293T cells (Homo sapiens, UniProt Q5S007).
T1 construct: host or cells: HEK293T (transient transfection with pCMV-LRRK2 WT plasmid)
Put plainly: pS935 LRRK2 Cell Assay (HTRF, phospho-LRRK2 Ser935). The format is cell-based. To be noted: LRRK2 Inhibition, Table 8, 2 hours compound incubation. An outline of the steps: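 HEK-293T cells transiently transfected with wild-type LRRK2 for 24 h, plated overnight, then treated 2 h at 37° C with compound (top 10 μM, 3-fold, 9 doses, duplicates, 0.2% DMSO). Lysates probed overnight at 23° C by sandwich HTRF for pSer935; 665/615 nm ratio read.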

Test [2] concerns the target LRRK2 wild type enzyme (Homo sapiens, UniProt Q5S007). Put plainly: Biochemical Assay: LRRK2 TR-FRET (LanthaScreen) kinase assay with LRRKtide substrate. The following applies: LRRK2 Inhibition, Table 8. In a few lines: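 Human wild-type LRRK2 (3 nM) preincubated 15 min with compound (11-point, 3-fold, top 10 μM), then reacted 120 min at 23 °C with 400 nM LRRKtide and 25 μM ATP, pH 8.0. Stopped with EDTA; Tb-anti-pLRRKtide TR-FRET read after 30 min.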
On the technique in general: Time-resolved FRET reads energy transfer from a long-lived donor to a nearby acceptor.

T1 sequence (Q5S007 whole entry): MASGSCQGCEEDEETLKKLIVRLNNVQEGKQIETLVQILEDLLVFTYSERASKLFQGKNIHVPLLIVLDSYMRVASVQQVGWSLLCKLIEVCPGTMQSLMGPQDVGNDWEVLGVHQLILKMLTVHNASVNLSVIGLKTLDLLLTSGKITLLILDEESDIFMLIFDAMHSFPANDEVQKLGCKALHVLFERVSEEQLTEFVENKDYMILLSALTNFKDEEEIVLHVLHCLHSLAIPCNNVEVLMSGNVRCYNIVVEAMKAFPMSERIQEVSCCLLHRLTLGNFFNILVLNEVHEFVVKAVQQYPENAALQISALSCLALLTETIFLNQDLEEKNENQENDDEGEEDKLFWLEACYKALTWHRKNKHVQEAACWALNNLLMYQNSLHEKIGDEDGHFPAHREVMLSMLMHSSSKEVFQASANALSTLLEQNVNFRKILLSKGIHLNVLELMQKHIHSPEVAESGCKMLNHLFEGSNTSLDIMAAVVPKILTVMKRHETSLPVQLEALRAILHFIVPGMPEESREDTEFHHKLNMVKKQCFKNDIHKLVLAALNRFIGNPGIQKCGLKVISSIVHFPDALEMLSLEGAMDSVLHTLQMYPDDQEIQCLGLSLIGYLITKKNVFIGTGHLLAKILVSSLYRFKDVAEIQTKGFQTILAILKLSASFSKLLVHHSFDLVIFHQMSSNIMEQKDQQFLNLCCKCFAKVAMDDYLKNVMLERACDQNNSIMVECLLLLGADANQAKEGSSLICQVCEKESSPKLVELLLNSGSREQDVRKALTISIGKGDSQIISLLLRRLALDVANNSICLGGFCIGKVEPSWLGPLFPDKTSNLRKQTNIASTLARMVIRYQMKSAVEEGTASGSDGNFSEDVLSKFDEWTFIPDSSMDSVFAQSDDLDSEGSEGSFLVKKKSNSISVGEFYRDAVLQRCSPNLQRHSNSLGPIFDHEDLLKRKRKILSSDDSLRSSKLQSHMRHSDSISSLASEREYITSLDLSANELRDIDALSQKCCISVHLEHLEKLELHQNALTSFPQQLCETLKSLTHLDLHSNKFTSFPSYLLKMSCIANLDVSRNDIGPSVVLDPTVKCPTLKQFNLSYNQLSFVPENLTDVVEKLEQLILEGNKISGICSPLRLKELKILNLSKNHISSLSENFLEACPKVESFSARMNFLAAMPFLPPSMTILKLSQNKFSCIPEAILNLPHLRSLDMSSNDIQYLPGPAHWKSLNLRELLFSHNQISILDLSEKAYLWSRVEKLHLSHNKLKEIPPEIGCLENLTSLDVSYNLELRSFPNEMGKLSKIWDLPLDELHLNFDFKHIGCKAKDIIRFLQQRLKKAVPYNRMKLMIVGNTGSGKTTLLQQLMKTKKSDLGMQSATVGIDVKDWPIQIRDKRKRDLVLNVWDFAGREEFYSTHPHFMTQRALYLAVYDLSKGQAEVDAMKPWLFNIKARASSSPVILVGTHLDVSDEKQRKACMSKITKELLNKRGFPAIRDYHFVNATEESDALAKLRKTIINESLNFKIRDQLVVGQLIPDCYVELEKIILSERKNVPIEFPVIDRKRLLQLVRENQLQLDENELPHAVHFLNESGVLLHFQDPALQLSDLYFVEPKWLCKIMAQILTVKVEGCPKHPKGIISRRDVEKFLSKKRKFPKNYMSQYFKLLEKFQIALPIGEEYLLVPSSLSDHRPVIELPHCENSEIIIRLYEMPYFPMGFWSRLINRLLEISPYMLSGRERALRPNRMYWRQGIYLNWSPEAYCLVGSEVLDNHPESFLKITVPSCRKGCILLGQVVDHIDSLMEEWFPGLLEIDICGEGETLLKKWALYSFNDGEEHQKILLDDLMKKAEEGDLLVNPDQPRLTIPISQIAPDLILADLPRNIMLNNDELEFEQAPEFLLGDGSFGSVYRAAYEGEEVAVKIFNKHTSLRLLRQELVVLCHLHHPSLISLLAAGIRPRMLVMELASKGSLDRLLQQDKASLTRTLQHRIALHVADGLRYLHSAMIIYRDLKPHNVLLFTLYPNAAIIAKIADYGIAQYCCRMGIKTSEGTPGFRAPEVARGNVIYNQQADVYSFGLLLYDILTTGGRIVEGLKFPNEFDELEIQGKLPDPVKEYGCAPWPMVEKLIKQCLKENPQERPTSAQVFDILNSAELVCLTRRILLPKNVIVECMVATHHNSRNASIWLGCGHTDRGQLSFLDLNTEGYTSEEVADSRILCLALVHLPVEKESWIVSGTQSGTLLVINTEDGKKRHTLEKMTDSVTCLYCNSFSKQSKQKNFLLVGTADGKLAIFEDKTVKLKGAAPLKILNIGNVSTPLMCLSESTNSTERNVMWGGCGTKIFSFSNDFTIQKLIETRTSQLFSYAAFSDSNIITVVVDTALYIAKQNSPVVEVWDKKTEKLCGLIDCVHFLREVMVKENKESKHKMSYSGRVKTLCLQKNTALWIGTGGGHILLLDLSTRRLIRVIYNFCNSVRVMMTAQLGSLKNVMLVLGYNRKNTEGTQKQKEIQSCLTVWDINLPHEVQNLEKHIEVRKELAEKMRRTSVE
Chain of LRRK2 wild type enzyme (Q5S007 whole entry): as above

For the molecule `C[C@@H]1C[C@H](n2c(C3CC(=O)N(Cc4cccnc4)C3)nc3cnc4ccc(C#N)cc4c32)CCO1` (single isomer, unassigned) [Compound 30, 1-[(2R,4R)-2-methyloxan-4-yl]-2-[(3R*)-5-oxo-1-[(pyridin-3-yl)methyl]pyrrolidin-3-yl]-1H-imidazo[4,5-c]quinoline-8-carbonitrile], the figures for the IC50 in test [1] and in test [2] were 41.3 nM and 0.567 nM, respectively.

On to `C[C@@H]1C[C@H](n2c(CC(=O)NCC3(C)CC3)nc3cnc4ccc(C#N)cc4c32)CCO1` [Compound 265, N-(1-methylcyclopropyl)methyl{3-[(2R,4R)-2-methyltetrahydro-2H-pyran-4-yl]-12-cyano-3,5,8-triazatricyclo[7.4.0.0^2,6]trideca-1,4,6,8,10,12-hexaen-4-yl}acetamide], for which the values for the IC50 in test [1] and in test [2] were 22.4 nM and 0.548 nM, respectively.

In the case of `C[C@@H]1C[C@H](n2c(CN3CCC(C(=O)O)C3)nc3cnc4ccc(C#N)cc4c32)CCO1` (stereo partly drawn) [Compound 77, 1-({8-cyano-1-[(2R,4R)-2-methyloxan-4-yl]-1H-imidazo[4,5-c]quinolin-2-yl}methyl)pyrrolidine-3-carboxylic acid], the IC50 in test [1] is 5160 nM; in test [2] it was 34.2 nM.

For `Cc1cncc(NC(=O)Cc2nc3cnc4ccc(C#N)cc4c3n2[C@@H]2CCO[C@H](C)C2)n1` [Compound 314, N-(6-methyl-2-pyrazinyl){3-[(2R,4R)-2-methyltetrahydro-2H-pyran-4-yl]-12-cyano-3,5,8-triazatricyclo[7.4.0.0^2,6]trideca-1(9),2(6),4,7,10,12-hexaen-4-yl}acetamide], the figures for the IC50 in test [1] and in test [2] were 2.36 nM and 0.542 nM, respectively.

`C[C@@H]1C[C@H](n2c(CC(=O)Nc3cnn(C)c3)nc3cnc4ccc(Cl)cc4c32)CCO1` [Compound 193, 2-{8-chloro-1-[(2R,4R)-2-methyloxan-4-yl]-1H-imidazo[4,5-c]quinolin-2-yl}-N-(1-methyl-1H-pyrazol-4-yl)acetamide]: the IC50 in test [1] was determined as 5.59 nM; in test [2], 0.261 nM.

For `CN1CC(n2c(C3CC(=O)N(CC4CC4)C3)nc3cnc4ccc(C#N)cc4c32)CCC1=O` (single isomer, unassigned) [Compound 139], the IC50 in test [1] turned out to be 1600 nM; in test [2], 56 nM.

For `C[C@@H]1C[C@H](n2c(CC(=O)NCCCO)nc3cnc4ccc(C#N)cc4c32)CCO1` [Compound 181, 2-{8-cyano-1-[(2R,4R)-2-methyloxan-4-yl]-1H-imidazo[4,5-c]quinolin-2-yl}-N-(3-hydroxypropyl)acetamide], the IC50 turned out to be 376 nM in test [1] and 0.578 nM in test [2].

On to `C[C@@H]1C[C@H](n2c([C@H]3CN(c4cnn(C)c4)C(=O)O3)nc3cnc4ccc(C#N)cc4c32)CCO1` [Compound 124, 2-[(5R)-3-(1-methyl-1H-pyrazol-4-yl)-2-oxo-1,3-oxazolidin-5-yl]-1-[(2R,4R)-2-methyloxan-4-yl]-1H-imidazo[4,5-c]quinoline-8-carbonitrile], for which the half-inhibitory concentration (IC50) is 50.9 nM in test [1] and 0.706 nM in test [2].

On to `COCCn1ccc(NC(=O)Cc2nc3cnc4ccc(C#N)cc4c3n2[C@@H]2CCO[C@H](C)C2)n1` [Compound 174, 2-{8-cyano-1-[(2R,4R)-2-methyloxan-4-yl]-1H-imidazo[4,5-c]quinolin-2-yl}-N-[1-(2-methoxyethyl)-1H-pyrazol-3-yl]acetamide], for which the IC50 in test [1] stood at 5.35 nM; in test [2], 0.316 nM.

In the case of `COc1nc(C)nc(C)c1NC(=O)Cc1nc2cnc3ccc(C#N)cc3c2n1[C@@H]1CCO[C@H](C)C1` [Compound 203, N-(4-methoxy-2,6-dimethyl-5-pyrimidinyl){3-[(2R,4R)-2-methyltetrahydro-2H-pyran-4-yl]-12-cyano-3,5,8-triazatricyclo[7.4.0.0^2,6]trideca-1,4,6,8,10,12-hexaen-4-yl}acetamide], the IC50 in test [1] turned out to be 136 nM; in test [2], 0.338 nM.

`CC(=O)N1CCC(c2nc3cnc4ccc(C#N)cc4c3n2[C@@H]2CCO[C@H](C)C2)CC1` [Compound 116, 2-(1-acetylpiperidin-4-yl)-1-[(2R,4R)-2-methyloxan-4-yl]-1H-imidazo[4,5-c]quinoline-8-carbonitrile]: the IC50 turned out to be 343 nM in test [1] and 1.26 nM in test [2].

In the case of `COc1ncccc1NC(=O)Cc1nc2cnc3ccc(C#N)cc3c2n1[C@@H]1CCO[C@H](C)C1` [Compound 318, N-(2-methoxy-3-pyridyl){3-[(2R,4R)-2-methyltetrahydro-2H-pyran-4-yl]-12-cyano-3,5,8-triazatricyclo[7.4.0.0^2,6]trideca-1(9),2(6),4,7,10,12-hexaen-4-yl}acetamide], the IC50 in test [1] is 2.04 nM; in test [2] it was 0.499 nM.

Take `COc1ncncc1NC(=O)Cc1nc2cnc3ccc(C#N)cc3c2n1[C@@H]1CCO[C@H](C)C1` [Compound 251, N-(4-methoxy-5-pyrimidinyl){3-[(2R,4R)-2-methyltetrahydro-2H-pyran-4-yl]-12-cyano-3,5,8-triazatricyclo[7.4.0.0^2,6]trideca-1(9),2(6),4,7,10,12-hexaen-4-yl}acetamide]: the IC50 was 3.56 nM in test [1] and 0.382 nM in test [2].

As for `C[C@@H]1C[C@H](n2c(CC(=O)NC3CC3)nc3cnc4ccc(Cl)cc4c32)CCO1` [Compound 183, 2-{8-chloro-1-[(2R,4R)-2-methyloxan-4-yl]-1H-imidazo[4,5-c]quinolin-2-yl}-N-cyclopropylacetamide], the IC50 was found to be 11.1 nM in test [1] and 0.258 nM in test [2].

`C[C@@H]1C[C@H](n2c(CC(=O)Nc3cnc(C(F)F)nc3)nc3cnc4ccc(C#N)cc4c32)CCO1` [Compound 254, N-[2-(difluoromethyl)-5-pyrimidinyl]{3-[(2R,4R)-2-methyltetrahydro-2H-pyran-4-yl]-12-cyano-3,5,8-triazatricyclo[7.4.0.0^2,6]trideca-1(9),2(6),4,7,10,12-hexaen-4-yl}acetamide]: the IC50 in test [1] is 27.3 nM; in test [2], 0.546 nM.

As for `C[C@@H]1C[C@H](n2c(CC(=O)Nc3cc(C(F)(F)F)on3)nc3cnc4ccc(C#N)cc4c32)CCO1` [Compound 339, N-[5-(trifluoromethyl)-3-isoxazolyl]{3-[(2R,4R)-2-methyltetrahydro-2H-pyran-4-yl]-12-cyano-3,5,8-triazatricyclo[7.4.0.0^2,6]trideca-1(9),2(6),4,7,10,12-hexaen-4-yl}acetamide], the IC50 in test [1] was 11.6 nM; in test [2], 1.13 nM.

In the case of `C[C@@H]1C[C@H](n2c([C@@H]3CCC(=O)N3)nc3cnc4ccc(C#N)cc4c32)CCO1` [Compound 71, 1-[(2R,4R)-2-methyloxan-4-yl]-2-[(2S)-5-oxopyrrolidin-2-yl]-1H-imidazo[4,5-c]quinoline-8-carbonitrile], the IC50 turned out to be 4790 nM in test [1] and 5.49 nM in test [2].

Consider `C[C@@H]1C[C@H](n2c(CC(=O)NC3CCOCC3)nc3cnc4ccc(C#N)cc4c32)CCO1` [Compound 4, 2-{8-cyano-1-[(2R,4R)-2-methyloxan-4-yl]-1H-imidazo[4,5-c]quinolin-2-yl}-N-(oxan-4-yl)acetamide], for which the IC50 turned out to be 57.5 nM in test [1] and 0.551 nM in test [2].

Consider `C[C@@H]1C[C@H](n2c(CC(=O)Nc3cccn(C)c3=O)nc3cnc4ccc(C#N)cc4c32)CCO1` [Compound 263, N-(1-methyl-2-oxo-1,2-dihydro-3-pyridyl){3-[(2R,4R)-2-methyltetrahydro-2H-pyran-4-yl]-12-cyano-3,5,8-triazatricyclo[7.4.0.0^2,6]trideca-1,4,6,8,10,12-hexaen-4-yl}acetamide], for which the IC50 in test [1] amounted to 8.93 nM; in test [2] it was 0.476 nM.

As for `C[C@@H]1C[C@H](n2c(CC3CN(C(=O)OC(C)(C)C)C3)nc3cnc4ccc(C#N)cc4c32)CCO1` [Compound 73, tert-butyl 3-({8-cyano-1-[(2R,4R)-2-methyloxan-4-yl]-1H-imidazo[4,5-c]quinolin-2-yl}methyl)azetidine-1-carboxylate], the IC50 worked out at 251 nM in test [1] and 3.88 nM in test [2].

Regarding `Cc1onc(NC(=O)Cc2nc3cnc4ccc(C#N)cc4c3n2[C@@H]2CCO[C@H](C)C2)c1C` [Compound 356, N-(4,5-dimethyl-3-isoxazolyl){3-[(2R,4R)-2-methyltetrahydro-2H-pyran-4-yl]-12-cyano-3,5,8-triazatricyclo[7.4.0.0^2,6]trideca-1(9),2(6),4,7,10,12-hexaen-4-yl}acetamide], the values for the IC50 in test [1] and in test [2] were 7.78 nM and 0.439 nM, respectively.

With `C[C@@H]1C[C@H](n2c(CC(=O)Nc3cccnc3CO)nc3cnc4ccc(C#N)cc4c32)CCO1` [Compound 283, N-[2-(hydroxymethyl)-3-pyridyl]{3-[(2R,4R)-2-methyltetrahydro-2H-pyran-4-yl]-12-cyano-3,5,8-triazatricyclo[7.4.0.0^2,6]trideca-1,4,6,8,10,12-hexaen-4-yl}acetamide], the IC50 in test [1] turned out to be 27.3 nM; in test [2] it was 0.572 nM.

In the case of `C[C@@H]1C[C@H](n2c(CC(=O)Nc3cnc(C(F)(F)F)nc3)nc3cnc4ccc(C#N)cc4c32)CCO1` [Compound 321, N-[2-(trifluoromethyl)-5-pyrimidinyl]{3-[(2R,4R)-2-methyltetrahydro-2H-pyran-4-yl]-12-cyano-3,5,8-triazatricyclo[7.4.0.0^2,6]trideca-1(9),2(6),4,7,10,12-hexaen-4-yl}acetamide], the IC50 came to 25.2 nM in test [1] and 0.66 nM in test [2].

Turning to `Cc1noc(NC(=O)Cc2nc3cnc4ccc(C#N)cc4c3n2[C@@H]2CCO[C@H](C)C2)c1C` [Compound 349, N-(3,4-dimethyl-5-isoxazolyl){3-[(2R,4R)-2-methyltetrahydro-2H-pyran-4-yl]-12-cyano-3,5,8-triazatricyclo[7.4.0.0^2,6]trideca-1(9),2(6),4,7,10,12-hexaen-4-yl}acetamide], the figures for the IC50 in test [1] and in test [2] were 7.43 nM and 0.547 nM, respectively.

As a reminder, the IC50 is the concentration that inhibits the measured activity by half.
